# Test results: patent US4317768A, “Dihydropyridine derivatives as stabilizers for vinyl chloride polymers” (priority 1977, dated 1982)
# Key:
# [1] = Photostabilizing power, PVC plates exposed to the sun, GARDNER scale
# Experimental: (§1) The photostabilizing power of the compounds of the invention was studied by exposing to the sun polyvinyl chloride plates which had been stabilized either by a dihydropyridine of the invention or by 2-phenyl-indole, or again by 2-(3'-methoxy-4'-hydroxy)-indole. This last product is an extremely valuable thermostabilizer for thermoplastic resins and is described in British Pat. No. 1,489,685.
# (§2) The resin given hereunder was prepared by mixing on cylinders at 160° C.:
# (§3) The plates of stabilized polyvinyl chloride, together with a plate which had not been stabilized, were stood in the sun under the same conditions and at the same time. Their colour was measured after 6 hours and 12 hours of exposure.
# (§4) The coloration of the plates was determined according to two methods:
# On the plates themselves, following the GARDNER scale, as in the section on thermostability,
# The sign + means that the coloration lies between the lower unit and the upper half-unit. Thus, 3+ means that the coloration lies between 3 and 3.5. Similarly, the sign - means that the coloration lies between the lower half-unit and the upper unit.
# [2] = Photostabilizing power, tetrahydrofuran solution of plates exposed to the sun, French Pharmacopeia
# Experimental: as §1, §2, §3, §4
# On a solution of these plates in tetrahydrofuran, the coloration of th solution being measured according to the French Pharmacopeia (IXth edition, II-338).
# [3] = Static thermostability (GARDNER method), rigid PVC sheets, 210° C., 0.3 part stabilizer
# Experimental: This study was carried out according to the GARDNER method, described in British Pat. No. 1,489,685.
# The reference substance was 2-phenyl-indole, a well-known and widely used stabilizer.
# The stabilizer (dihydropyridine or 2-phenyl-indole) and the other usual ingredients were mixed with powdered vinyl resins and the mixtures were calendered at a temperature of 160° C. to give rigid sheets.
# The sheets were then heated in a thermostated oven (185° C. or 210° C.) for different intervals of time until incipient carbonization.
# The coloration of the samples was compared to a standard scale of coloration, known as the GARDNER scale and was expressed in terms of the reference figures of the GARDNER scale.
# This study was carried out with the following resin:
# Polyvinyl chloride resin
# SL 2016 is a solution of zinc-2-ethyl-hexanoate in a mixture of hydrocarbons boiling between 158° C. and 184° C.
# The first trial was carried out at 210° C. with a resin containing 0.3 part by weight of stabilizer, the sheets being removed from the oven every three minutes over a period of 21 minutes.
# [4] = Photostabilizing power, sheets exposed to the sun, co-polymer (a)
# Experimental: (§5) The sheets were exposed to the sun and their colorations were also determined according to the GARDNER method.
# [5] = Comparison with stabilizer G1, rigid co-polymer, 0.5 part, 185° C.
# Source text: (b) Comparison with stabilizer G1
# Stabilizer G1 is a mixture of 1,4-butanediol-β-aminocrotonate and of β-aminocrotonate of alcohols containing from 16 to 18 carbon atoms.
# [6] = Comparison with 1,4-butanediol-β-aminocrotonate and methyl-β-aminocrotonate, rigid co-polymer, 185° C.; conditions: 0.5 part
# Experimental: (a) Comparison with 1,4-butanediol-β-aminocrotonate and with methyl-β-aminocrotonate.
# The following rigid co-polymer was prepared:
# (§6) The sheets were heated in a ventilated oven at 185° C. and the following results were obtained: […]
# [7] = Thermostability, flexible co-polymer (b), Metrastat oven 160° C.; conditions: 0.2 part
# Experimental: (§7) The study of the static thermostability of vinyl co-polymers was carried out according to the GARDNER method described above and, also in a more detailed manner in British Patent No. 1,489,685.
# (b) Flexible co-polymer vinyl chloride-vinyl acetate.
# (§8) The following compound was prepared:
# The resin was allowed to gel for 5 minutes at 120° C. and the sheets were heated at 160° C. in a Metrastat oven.
# [8] = Static thermostability (GARDNER), rigid co-polymer, 185° C.; conditions: for coloration, GARDNER scale: 0.1 part
# Experimental: as §7
# (a) Rigid co-polymer vinyl chloride-vinyl acetate
# as §8, §6
# [9] = Comparison with 2-phenyl-indole, vinyl chloride-vinylidene chloride co-polymer, 210° C.; conditions: 0.3 part
# Experimental: A second test was made using the following compound:
# The sheets were heated in a ventilated oven at 210° C. and the following results were obtained: […]
# [10] = Photostabilizing power, sheets exposed to the sun, rigid co-polymer (b)
# Experimental: as §5
# [11] = Comparison with stabilizer G1, 0.3 part, 185° C.
# [12] = Thermostability, rigid co-polymer (d), ventilated oven 210° C.; conditions: 0.3 part
# Experimental: as §7
# (d) Rigid co-polymer vinyl chloride-vinylidene chloride
# as §8
# The sheets were heated in a ventilated oven at 210° C.
# [13] = Thermostability, flexible co-polymer (c), Metrastat oven 160° C.; conditions: 0.3 part
# Experimental: as §7
# (c) Flexible co-polymer vinyl chloride-vinyl acetate
# as §8
# The sheets were heated in a Metrastat oven at 160° C. and the following results were obtained: […]
compound,measurement,setting,value
"COC(=O)C1=C(C)NC(C)=C(C(=O)OC)C1C [Compound 29, 2,4,6-Trimethyl-3,5-dicarbomethoxy-1,4-dihydropyridine]",Coloration of the plates GARDNER,[1]; exposure to sun 6h,3
same,Coloration of the plates GARDNER,[1]; exposure to sun 12h,5
same,Coloration of the plates FRENCH PHARMACOPEIA,[2]; exposure to sun 0,JV6
same,Coloration of the plates FRENCH PHARMACOPEIA,[2]; exposure to sun 6h,JV5
same,Coloration of the plates FRENCH PHARMACOPEIA,[2]; exposure to sun 12h,JV4
same,"coloration, GARDNER scale",[3]; 0 min,1
same,"coloration, GARDNER scale",[3]; 3 min,2
same,"coloration, GARDNER scale",[3]; 6 min,3
same,"coloration, GARDNER scale",[3]; 9 min,6
same,"coloration, GARDNER scale",[3]; 12 min,7
same,"coloration, GARDNER scale",[3]; 15 min,10
same,"coloration, GARDNER scale",[3]; 18 min,10.5
same,"coloration, GARDNER scale",[3]; 21 min,Burnt
CCCCOCCOC(=O)C1=C(C)NC(C)=C(C(=O)OCCOCCCC)C1 [Compound 27],Colour in GARDNER degrees,[4]; After 24 hours,2 GARDNER degrees
same,Colour in GARDNER degrees,[4]; Time 0,1 GARDNER degrees
same,"coloration, GARDNER scale",[3]; 0 min,1
same,"coloration, GARDNER scale",[3]; 3 min,1
same,"coloration, GARDNER scale",[3]; 6 min,1
same,"coloration, GARDNER scale",[3]; 9 min,2
same,"coloration, GARDNER scale",[3]; 12 min,5
same,"coloration, GARDNER scale",[3]; 15 min,14
same,"coloration, GARDNER scale",[3]; 18 min,Burnt
same,"coloration, GARDNER scale",[5]; 0 min,1
same,"coloration, GARDNER scale",[5]; 2 min,1
same,"coloration, GARDNER scale",[5]; 4 min,4
same,"coloration, GARDNER scale",[5]; 6 min,7
same,"coloration, GARDNER scale",[5]; 8 min,12.5
same,"coloration, GARDNER scale",[5]; 10 min,17
"CC(N)=CC(=O)OCCCCOC(=O)C=C(C)N [1,4-butanediol-β-aminocrotonate, reference compound]","coloration, GARDNER scale",[6]; 0 min,1
same,"coloration, GARDNER scale",[6]; 2 min,1
same,"coloration, GARDNER scale",[6]; 4 min,4
same,"coloration, GARDNER scale",[6]; 6 min,10
same,"coloration, GARDNER scale",[6]; 8 min,13
same,"coloration, GARDNER scale",[6]; 10 min,15
same,"coloration, GARDNER scale",[6]; 12 min,18
CC1=C(C(=O)OCCOc2ccccc2)CC(C(=O)OCCOc2ccccc2)=C(C)N1 [Compound 28],"coloration, GARDNER scale",[7]; 0 min,1
same,"coloration, GARDNER scale",[7]; 30 min,2
same,"coloration, GARDNER scale",[7]; 40 min,6
same,"coloration, GARDNER scale",[7]; 50 min,12
same,"coloration, GARDNER scale",[7]; 60 min,15
same,"thermostabilizing properties, in words",[8],clearly show the thermostabilizing properties
same,"coloration, GARDNER scale",[8]; 0 min,1
same,"coloration, GARDNER scale",[8]; 2 min,1
same,"coloration, GARDNER scale",[8]; 4 min,4
same,"coloration, GARDNER scale",[8]; 6 min,10
same,"coloration, GARDNER scale",[8]; 8 min,12
same,"coloration, GARDNER scale",[8]; 10 min,13
same,"coloration, GARDNER scale",[8]; 12 min,15
same,"coloration, GARDNER scale",[8]; 14 min,17
same,"coloration, GARDNER scale",[6]; 0 min,1
same,"coloration, GARDNER scale",[6]; 2 min,1
same,"coloration, GARDNER scale",[6]; 4 min,5
same,"coloration, GARDNER scale",[6]; 6 min,7
same,"coloration, GARDNER scale",[6]; 8 min,11
same,"coloration, GARDNER scale",[6]; 10 min,13
same,"coloration, GARDNER scale",[6]; 12 min,17
same,"coloration, GARDNER scale",[9]; 0 min,1.5
same,"coloration, GARDNER scale",[9]; 3 min,2
same,"coloration, GARDNER scale",[9]; 6 min,3
same,"coloration, GARDNER scale",[9]; 9 min,3.5
same,"coloration, GARDNER scale",[9]; 12 min,7
same,"coloration, GARDNER scale",[9]; 15 min,15
same,Colour in GARDNER degrees,[4]; After 24 hours,1 GARDNER degrees
same,Colour in GARDNER degrees,[4]; Time 0,1 GARDNER degrees
same,Colour in GARDNER degrees,[10]; After 24 hours,3.5 GARDNER degrees
same,Colour in GARDNER degrees,[10]; Time 0,1.5 GARDNER degrees
same,"coloration, GARDNER scale",[11]; 0 min,1
same,"coloration, GARDNER scale",[11]; 2 min,1
same,"coloration, GARDNER scale",[11]; 4 min,2
same,"coloration, GARDNER scale",[11]; 6 min,4
same,"coloration, GARDNER scale",[11]; 8 min,5
same,"coloration, GARDNER scale",[11]; 10 min,9
same,"coloration, GARDNER scale",[11]; 12 min,11
same,"coloration, GARDNER scale",[11]; 14 min,13
same,"coloration, GARDNER scale",[3]; 0 min,1
same,"coloration, GARDNER scale",[3]; 3 min,1
same,"coloration, GARDNER scale",[3]; 6 min,1
same,"coloration, GARDNER scale",[3]; 9 min,3
same,"coloration, GARDNER scale",[3]; 12 min,4
same,"coloration, GARDNER scale",[3]; 15 min,5
same,"coloration, GARDNER scale",[3]; 18 min,10
same,"coloration, GARDNER scale",[3]; 21 min,Burnt
same,"coloration, GARDNER scale",[12]; 0 min,1.5
same,"coloration, GARDNER scale",[12]; 3 min,2
same,"coloration, GARDNER scale",[12]; 6 min,3
same,"coloration, GARDNER scale",[12]; 9 min,3.5
same,"coloration, GARDNER scale",[12]; 12 min,7
same,"coloration, GARDNER scale",[12]; 15 min,15
same,"coloration, GARDNER scale",[13]; 0 min,1
same,"coloration, GARDNER scale",[13]; 10 min,1
same,"coloration, GARDNER scale",[13]; 20 min,2
same,"coloration, GARDNER scale",[13]; 30 min,5
same,"coloration, GARDNER scale",[13]; 40 min,7
same,"coloration, GARDNER scale",[13]; 50 min,10
same,"coloration, GARDNER scale",[13]; 60 min,12
